Laboratory results as given in patent US20260274910A1, “SINGLE FUSION PROTEIN AND PHARMACEUTICAL COMPOSITION” (MEDI&GENE INC., priority 2023, published 2026).

Experiments:
[1] = tested on: UCP-1 (uncoupling protein 1); assay: UCP-1 expression (RT-PCR) in differentiated 3T3-L1 adipocytes; type: cell-based, mouse; settings: 100 nM, 30 hours
Procedure: (§1) To observe the functionality of the fusion proteins related to lipid metabolism, the 3T3-L1 mouse pre-adipocyte cell line was used as the cell line itself (undifferentiated) or by differentiating into adipocytes. Differentiation into the adipocytes was performed by inducing primary differentiation for the 3T3-L1 cells in a medium containing DMEM, 10% FBS, 10 μg/ml insulin, 0.5 mM IBMX (3-Isobutyl-1-methylxanthine), and 1 μM dexamethasone for 2 days, and inducing secondary differentiation with a medium containing DMEM, 10% FBS, and 10 μg/ml insulin for the remaining 4 days. The adipocytes in which differentiation was finally completed were treated with the test substances at a concentration of 100 nM for 30 hours (Control: PBS) and then used for each test.
UCP-1 (uncoupling protein 1) is a representative biomarker related to thermogenesis, indicating browning and energy metabolism activation of adipocytes. In order to observe changes in expression of UCP-1 mRNA and protein by treatment of the fusion proteins, mRNA and protein were isolated from the cells treated with each test substance and RT-PCR and western blot were performed.

plasma proteins = assay: Plasma protein binding test (PPB); type: in vitro ADME, mice; settings: mouse plasma, 5 uM, 37° C., 4 hours, 100 kD filter, western blot
Procedure: Such an increase in half-life was further confirmed by measuring plasma protein binding rates (Plasma protein binding test, PPB). […] Each of the plasma of the mice and the fusion protein (SEQ ID NO: 13), and or His tag-wild-type substance (1-81) (SEQ ID NO: 5) was incubated at a concentration of 5 uM at 37° C. for 4 hours. After that, they were centrifuged with a 100 kD filter to obtain fractions of the substance bound to the plasma proteins or fractions of the unbound substance. Each of the obtained fractions was evaluated by western blot.

MDA-MB-231 cell line = assay: Reactive oxygen generation (DCF-FA) in breast cancer cells; type: cell-based; settings: 1 μM, 24 hours; compared with Control and SEQ ID NO: 5
Procedure: In addition, in order to examine generation of reactive oxygen that plays an important role in cancer cell death, each test substance was treated to the MDA-MB-231 cell line at a concentration of 1 μM (Control: PBS) for 24 hours. Then, the cells were stained with DCF-FA and their fluorescence values were observed and compared at 485/535 nm.

[2] = Half-life in mice, NIR dye-conjugated substance, plasma fluorescence
Procedure: For evaluation, ten-week-old C57BL/6 mice were used, and the mice were reared in a specialized animal facility which provided a normal diet and a 12/12 hour night/day cycle and then used for experimentation.
The synthetic peptide (SEQ ID NO: 8) and fusion protein (SEQ ID NO: 13) were each injected into the mice at a concentration of 2.5 mg/kg, and blood was collected at 0, 0.5, 2, 4, 24 hours after injection. The collected blood was centrifuged and the obtained plasma was analyzed. At this time, in order to perform effective quantification of the substances, each substance was conjugated with Dylight 680 Near-Infrared dye (NIR) in advance prior to injection, and the finally collected blood samples were examined by observing fluorescent signals with a SpectraMax i3 microplate reader device.

3T3-L1 adipocytes = assay: Lipid droplet analysis (BODIPY 493/503, confocal) in 3T3-L1 adipocytes; type: cell-based, mouse; settings: differentiated 3T3-L1 adipocytes, 100 nM, 30 hours
Procedure: as §1
In addition, lipid droplets of adipocytes were stained with BODIPY 493/503 dye sample, and then confocal image scanning was performed to analyze the size and diameter of the lipid droplets.

[3] = tested on: sciatic nerve transection mouse model; assay: Sciatic nerve transection muscle atrophy model; type: in vivo, C57BL/6 male mice; settings: versus control; for Grip strength: 5.0 mg/kg subcutaneous 6 times a week for 9 weeks; for Muscle mass (DXA assay): 5.0 mg/kg subcutaneous 6 times a week, fourth week
Procedure: The effects of the test substances on muscle diseases accompanied by muscle loss were evaluated using a sciatic nerve transection mouse model.
In the sciatic nerve transection mouse model, muscle atrophy was induced as follows. The thigh muscles of C57BL/6 male mice were transversely incised to expose sciatic nerves, and then the sciatic nerves were transected to weaken the nerves in the muscle tissue and induce muscle atrophy. The incised site was sutured, and a recovery period of one week was provided after the surgery.
To each mouse after the recovery period, the test substance (Control-PBS; and fusion protein) assigned to each group was subcutaneously injected at a concentration of 5.0 mg/kg 6 times a week for 9 weeks (Control: n=8, No. 13: n=9, No. 14: n=9, No. 15: n=8). The effects of improving muscle loss were measured with an X-ray body composition analyzer (DXA assay) in the fourth week of test substance administration, and the effects of improving muscle function was compared by measuring grip strength.

cAMP (cyclic AMP) = assay: cAMP level (hTRF) in undifferentiated 3T3-L1 cells; type: cell-based, mouse; settings: undifferentiated 3T3-L1, 100 nM with 0.5 mM IBMX, 30 minutes; compared with Control and SEQ ID NO: 5
Procedure: as §1
Next, changes in cAMP (cyclic AMP), a signaling mediator contributing to lipolysis and energy metabolism were evaluated in the undifferentiated adipocytes. The undifferentiated cells were treated with the test substances at a concentration of 100 nM (Control: PBS) with 0.5 mM IBMX for 30 minutes. Thereafter, the level of cAMP was evaluated by the hTRF (Homogeneous Time Resolved Fluorescence) method (using CAMP Gs dynamic kit from Cisbio). As a result of the measurement, it was confirmed that the level of cAMP was higher in the groups treated with the fusion proteins (SEQ ID NOs: 1, 2, 3, 7, 13, 14, 15) and shortened sequences (sequences 9, 10, 11) compared with the Control and His tag-wild-type substance (1-81) (SEQ ID NO: 5) (FIG. 7).

[4] = tested on: follicular cells (dermal papilla cells); assay: Follicular cell proliferation by MTT assay; type: cell-based; settings: 100 nM, 24 hours; compared with Control (PBS)
Procedure: Whether the test substances of the present invention has effects on preventing hair loss or promoting hair growth was evaluated as follows. Specifically, it was observed whether they have efficacy of improving loss of follicular cells in scalp tissue which is a cause of hair loss, or hair growth due to an increase in hair follicles, by using dermal papilla cells and evaluating cell proliferation of follicular cells.
The follicular cells were treated with each test substance 100 nM (control: PBS) for 24 hours, and the degree of cell proliferation was evaluated by MTT assay.

[5] = tested on: diet-induced obesity-induced impaired glucose tolerance mice; assay: Diet-induced obesity-induced impaired glucose tolerance model (glucose tolerance test); type: in vivo, C57BL/6N mice; settings: 5.0 mg/kg 1 hour before intraperitoneal 20% glucose, after 8 hours fasting
Procedure: In order to secure an impaired glucose tolerance model, conditions causing glucose metabolic disorders in mice by diet-induced obesity were designed. As an animal model, 5-week-old male C57BL/6N mice were obtained and after undergoing an acclimation period by providing a normal diet for 1 week, they were used, and the housing conditions were maintained at 18~24° C., 50~60% humidity, and ad libitum feeding with free access to feed and water was carried out during both the acclimation period and experimental period.
In order to induce impaired glucose tolerance to the mice which had undergone the acclimation period of 1 week, a high-fat diet was supplied to induce obesity. The high-fat diet was provided by preparing as Table 10 below.
The obesity-induced mice were divided into a control group (negative control group; n=14) and an experimental group (fusion protein SEQ ID NOs: 14, 15; No. 14: n=9, No. 15: n=9) and subjected to fasting for 8 hours. Thereafter, PBS to the control, and the fusion protein to the experimental group were administered at a concentration of 5.0 mg/kg, and after 1 hours, a 20% glucose solution was intraperitoneally injected. Blood was collected at each time point and analyzed using a glucometer.

[6] = tested on: Akt and S6 (phosphorylation, p-Akt/p-S6) in C2C12 mouse skeletal muscle cell line; assay: Akt and S6 phosphorylation (western blot) in C2C12 muscle cells; type: cell-based; settings: 2 hours
Procedure: In order to evaluate functions related to muscle loss diseases, each test substance was treated to the undifferentiated C2C12 mouse skeletal muscle cell line (mouse myoblast cell line) or the cell line in which differentiation into myotubes was completed. Differentiation of the cell line into myotubes was performed by conducting addition of 2% horse serum to culture medium and replacement with new medium every two days for a total of 4 days.
To the undifferentiated or differentiated cell lines, the test substances, fusion proteins (SEQ ID NOs: 1, 2, 3, 7, 14 and 15) were treated at a concentration of 100 nM (Control: PBS treated group) for 2 hours. Thereafter, the cells were immediately washed once and the cells were lysed with RIPA buffer (Radioimmunoprecipitation assay buffer). The activity of Akt and S6 (phosphorylation, p-Akt/p-S6) was observed by western blot. Akt phosphorylation is a well-known marker of activation of cell signaling pathways, and is an indicator of beneficial effects on muscle cells such as promotion of glucose metabolism and promotion of muscle biosynthesis. Similarly, S6 phosphorylation is a well-known marker of mTOR activity, and the activity of mTOR is an indicator showing muscle biosynthesis and various cell signaling pathways.

[7] = tested on: MDA-MB-231 triple-negative breast cancer cell line; assay: MTT cell viability in breast cancer cells; type: cell-based; settings: 1 μM, 48 hours; compared with Control (PBS), SEQ ID NO: 4 and SEQ ID NO: 5
Procedure: Next, the test substances, the fusion proteins (SEQ ID NO: 1, 2, 3, 7, 14, 15) and shortened sequences (SEQ ID NOs: 9, 10, 11, 12) were treated to MDA-MB-231 triple-negative breast cancer cell line at a concentration of 1 μM (Control: PBS) for 48 hours. Thereafter, the cells were washed with PBS once, and the cells were suspended in serum-free buffer. The MTT (3-[4,5-dimethylthiazol-2-yl]-2,5-diphenyltetrazolium bromide) substance was added thereto at 0.5 mg/ml and incubated at 37° C. for 2 hours. Then, they were washed with PBS once, and the cells were lysed with DMSO for 15 minutes. The solution was transferred to a new plate and the absorbance was measured at 590 nm using a microplate reader.

[8] = Table 6, C2C12, 100 nM, differentiation state not given

Substance	mRNA level of UCP-1 [1]	Binding rate with the plasma proteins (plasma proteins) [%]	Reactive oxygen generation (MDA-MB-231 cell line)	Half-life increase of fusion protein versus synthetic peptide (SEQ ID NO: 8) ([2]; 2.5 mg/kg)	Half-life ([2]; injected at 2.5 mg/kg, Dylight 680 NIR-conjugated, plasma at 0, 0.5, 2, 4, 24 hours) [h]	Lipid droplet size (3T3-L1 adipocytes)	Maximum lipid droplet diameter per cell (3T3-L1 adipocytes)	Total lipid droplet area (3T3-L1 adipocytes)	Grip strength [3]	Muscle mass (DXA assay) [3]	Level of cAMP (cAMP (cyclic AMP))	Cell viability (MTT, cell proliferation) [4]	Blood glucose variation over time (GLUAUC) compared with the control group [5]	Activity (% increase compared to control) Akt [6, 8] [%]	Activity (% increase compared to control) S6 [6, 8] [%]	Activity of Akt and S6 compared with control and His tag-wild-type substance (SEQ ID NO: 5) ([6]; differentiated cell line, 100 nM)	Cell viability (MTT) [7]
SEQ ID NO: 13: Recombinant protein: Wild-type substance (1-81)-Shortened linker-Fc fusion	significantly increased	74	generated higher	approximately 11.8 times	18.9	reduced at a significant level	reduced at a significant level	reduced at a significant level	higher performance	significantly increased	higher	significantly increased					
SEQ ID NO: 15: Recombinant protein: Shortened substance (1-47)-Shortened linker-Fc fusion			generated higher						higher performance	significantly increased	higher	significantly increased	significant difference	548	232	significantly higher activity	significantly low
